Source: patent US20220289753A1, “SHP2 INHIBITORS” (IRBM S.P.A., priority 2019, published 2022)
Like-named read-outs stand apart in the source and are kept apart here.

Columns and labels:
[1] = biological target: T1, SHP-2 enzyme (Met1-Leu525) (Homo sapiens, UniProt Q06124); assay: SHP2 inhibition enzymatic assay (DiFMUP substrate, IRS1 peptide activation); assay type: biochemical; conditions: SHP2 wt; activated by 500 nM IRS1 peptide; 75 μM DiFMUP substrate
T1 construct: synthetized by Origene, Met1-Leu525, cat #TP750155; purchased Origene TP750155
T1 sequence (Q06124 1-525): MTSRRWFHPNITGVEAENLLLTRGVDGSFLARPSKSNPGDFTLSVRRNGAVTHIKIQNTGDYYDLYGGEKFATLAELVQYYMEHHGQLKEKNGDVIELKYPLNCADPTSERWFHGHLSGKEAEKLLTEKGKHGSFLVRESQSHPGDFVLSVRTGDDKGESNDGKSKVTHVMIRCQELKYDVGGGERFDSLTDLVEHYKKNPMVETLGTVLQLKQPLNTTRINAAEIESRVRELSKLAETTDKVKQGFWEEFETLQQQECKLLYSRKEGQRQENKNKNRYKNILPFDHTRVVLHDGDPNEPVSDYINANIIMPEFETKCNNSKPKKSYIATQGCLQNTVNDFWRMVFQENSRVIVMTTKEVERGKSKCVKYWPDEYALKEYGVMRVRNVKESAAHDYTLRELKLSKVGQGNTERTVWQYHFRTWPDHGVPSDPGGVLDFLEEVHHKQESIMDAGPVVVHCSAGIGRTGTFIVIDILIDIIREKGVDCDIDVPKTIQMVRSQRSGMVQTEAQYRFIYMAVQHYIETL
How it was run: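 SHP-2 (Met1-Leu525, 0.5 nM final) preincubated 30 min with compounds and IRS1 activating peptide in HEPES pH 7.2 buffer with NaCl, KCl, EDTA, tween-20, 5 mM DTT. DiFMUP then added for 30 min at room temperature and fluorescence read. IC50 from four-parameter logistic fit of % inhibition.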

[2] = test system: ERK phosphorylation in KYSE-520 cells; assay: Phospho-ERK cellular assay (Advanced phospho-ERK1/2 (Thr202/Tyr204) TR-FRET kit); assay type: cell-based; conditions: Homo sapiens, KYSE-520, 2 h, read-out: pERK IC50
Protocol: Phospho-ERK Cellular Assay
ERK phosphorylation was detected using the “Advanced phospho-ERK1/2 (Thr202/Tyr204)” TR-FRET kit (Cisbio, Cat #64AERPEG/H), following the manufacturer reagents and instructions. […] After an overnight incubation, cells were treated with DMSO serial diluted compounds and incubated for 2 h at 37° C. After incubation, 2 μL/well of 4× Lysis Buffer (Cisbio 64KL1FDF), were added and incubated with cells for 30 min on gentle shaking. Finally, lysates were added with 2 μL/well of Eu cryptate (donor) and D2 (acceptor) conjugated antibodies (as provided by the Cisbio kit #64AERPEG/H) diluted 1:100 in Detection Buffer (as provided by the Cisbio kit #64AERPEG/H). Plates were then sealed and incubated at room temperature in the dark. After an overnight incubation, the TR-FRET signal was detected on a suitable reader (Envision, PerkinElmer). The lower the TR-FRET signal the higher the higher the SHP2 inhibition in cells. […] The percentage activity is fitted against the compound dilutions with a four-parameter logistic regression. The inflection point (i.e. the concentration at which half-maximal inhibition is achieved) is the IC50.

[3] = KYSE-520 cells, 2 h at 37° C., TR-FRET

IC50 [1]	IC50 [2, 3]	SMILES	IC50 [2]
< 500 nM	< 1000 nM	N[C@@H]1c2cccnc2CC12CCN(c1nc3nc(Sc4cccnc4C(F)(F)F)cnc3[nH]1)CC2 [Example 139, (S)-1′-(5-((2-(trifluoromethyl)pyridin-3-yl)thio)-1H-imidazo[4,5-b]pyrazin-2-yl)-5,7-dihydrospiro[cyclopenta[b]pyridine-6,4′-piperidin]-5-amine]	–
500 to 3000 nM	> 5000 nM	CNc1nccc(-c2cnc3[nH]c(N4CCC5(CC4)Cc4ccccc4[C@H]5N)nc3n2)c1Cl [Example 140, (S)-1′-(5-(3-chloro-2-(methylamino)pyridin-4-yl)-1H-imidazo[4,5-b]pyrazin-2-yl)-1,3-dihydrospiro[indene-2,4′-piperidin]-1-amine]	–
< 500 nM	< 1000 nM	N[C@@H]1c2ccccc2CC12CCN(c1nc3nc(Sc4ccc[n+]([O-])c4C(F)(F)F)cnc3[nH]1)CC2 [Example 141, (S)-3-((2-(1-amino-1,3-dihydrospiro[indene-2,4′-piperidin]-1′-yl)-1H-imidazo[4,5-b]pyrazin-5-yl)thio)-2-(trifluoromethyl)pyridine 1-oxide]	–
500 to 3000 nM	> 5000 nM	CC(C)(C)S(=O)(=O)N[C@@H]1c2cccnc2CC12CCN(c1nc3nc(Sc4cccnc4C(F)(F)F)cnc3[nH]1)CC2 [Example 142, (S)-2-methyl-N-(1′-(5-((2-(trifluoromethyl)pyridin-3-yl)thio)-1H-imidazo[4,5-b]pyrazin-2-yl)-5,7-dihydrospiro[cyclopenta[b]pyridine-6,4′-piperidin]-5-yl)propane-2-sulfonamide]	–
< 500 nM	< 1000 nM	N[C@@H]1c2ccccc2OC12CCN(c1nc3nc(Sc4cccnc4C(F)(F)F)cnc3[nH]1)CC2 [Example 143, (R)-1′-(5-((2-(trifluoromethyl)pyridin-3-yl)thio)-1H-imidazo[4,5-b]pyrazin-2-yl)-3H-spiro[benzofuran-2,4′-piperidin]-3-amine]	–
500 to 3000 nM	> 5000 nM	CC1(N)CCN(c2nc3nc(Sc4cccc(Cl)c4Cl)ncc3[nH]2)CC1 [Example 144, 1-(2-((2,3-dichlorophenyl)thio)-7H-purin-8-yl)-4-methylpiperidin-4-amine]	–
< 500 nM	< 1000 nM	Nc1nccc(Sc2cnc3[nH]c(N4CCC5(CC4)Cc4ncccc4[C@H]5N)nc3n2)c1Cl [Example 145, (S)-1′-(5-((2-amino-3-chloropyridin-4-yl)thio)-1H-imidazo[4,5-b]pyrazin-2-yl)-5,7-dihydrospiro[cyclopenta[b]pyridine-6,4′-piperidin]-5-amine]	–
< 500 nM	< 1000 nM	CNc1nccc(Sc2cnc3[nH]c(N4CCC5(CC4)Cc4ncccc4[C@H]5N)nc3n2)c1Cl [Example 146, (S)-1′-(5-((3-chloro-2-(methylamino)pyridin-4-yl)thio)-1H-imidazo[4,5-b]pyrazin-2-yl)-5,7-dihydrospiro[cyclopenta[b]pyridine-6,4′-piperidin]-5-amine]	–
< 500 nM	< 1000 nM	CC(=O)Nc1nccc(Sc2cnc3[nH]c(N4CCC5(CC4)Cc4ccccc4[C@H]5N)nc3n2)c1Cl [Example 147, (S)-N-(4-((2-(1-amino-1,3-dihydrospiro[indene-2,4′-piperidin]-1′-yl)-1H-imidazo[4,5-b]pyrazin-5-yl)thio)-3-chloropyridin-2-yl)acetamide]	–
< 500 nM	1000 to 5000 nM	N[C@@H]1c2cccnc2CC12CCN(c1nc3nc(Sc4ccncc4Cl)cnc3[nH]1)CC2 [Example 150, (S)-1′-(5-((3-chloropyridin-4-yl)thio)-1H-imidazo[4,5-b]pyrazin-2-yl)-5,7-dihydrospiro[cyclopenta[b]pyridine-6,4′-piperidin]-5-amine]	–
< 500 nM	> 5000 nM	COc1nccc(Sc2cnc3[nH]c(N4CCC5(CC4)Cc4ncccc4[C@H]5N)nc3n2)c1Cl [Example 151, (S)-1′-(5-((3-chloro-2-methoxypyridin-4-yl)thio)-1H-imidazo[4,5-b]pyrazin-2-yl)-5,7-dihydrospiro[cyclopenta[b]pyridine-6,4′-piperidin]-5-amine]	–
500 to 3000 nM	> 5000 nM	N[C@@H]1c2cccnc2CC12CCN(c1nc3nc(Sc4ccnc(OC5COC5)c4Cl)cnc3[nH]1)CC2 [Example 153, (S)-1′-(5-((3-chloro-2-(oxetan-3-yloxy)pyridin-4-yl)thio)-1H-imidazo[4,5-b]pyrazin-2-yl)-5,7-dihydrospiro[cyclopenta[b]pyridine-6,4′-piperidin]-5-amine]	–
< 500 nM	> 5000 nM	CN(C)c1nccc(Sc2cnc3[nH]c(N4CCC5(CC4)Cc4ncccc4[C@H]5N)nc3n2)c1Cl [Example 154, (S)-1′-(5-((3-chloro-2-(dimethylamino)pyridin-4-yl)thio)-1H-imidazo[4,5-b]pyrazin-2-yl)-5,7-dihydrospiro[cyclopenta[b]pyridine-6,4′-piperidin]-5-amine]	–
< 500 nM	1000 to 5000 nM	N[C@@H]1c2ccccc2OC12CCN(c1nc3nc(Sc4ccncc4Cl)cnc3[nH]1)CC2 [Example 155, (R)-1′-(5-((3-chloropyridin-4-yl)thio)-1H-imidazo[4,5-b]pyrazin-2-yl)-3H-spiro[benzofuran-2,4′-piperidin]-3-amine]	–
< 500 nM	> 5000 nM	N[C@@H]1c2ccccc2CC12CCN(c1nc3nc(Sc4cncnc4C(F)(F)F)cnc3[nH]1)CC2 [Example 156, (S)-1′-(5-((4-(trifluoromethyl)pyrimidin-5-yl)thio)-1H-imidazo[4,5-b]pyrazin-2-yl)-1,3-dihydrospiro[indene-2,4′-piperidin]-1-amine]	–
< 500 nM	> 5000 nM	N[C@@H]1c2ccccc2CC12CCN(c1nc3nc(Sc4cccc5c4OCC(=O)N5)cnc3[nH]1)CC2 [Example 157]	–
< 500 nM	< 1000 nM	N[C@@H]1c2ccccc2CC12CCN(c1nc3nc(Sc4nccnc4Cl)cnc3[nH]1)CC2 [Example 158, (S)-1′-(5-((3-chloropyrazin-2-yl)thio)-1H-imidazo[4,5-b]pyrazin-2-yl)-1,3-dihydrospiro[indene-2,4′-piperidin]-1-amine]	–
< 500 nM	< 1000 nM	N[C@@H]1c2ccccc2CC12CCN(c1nc3nc(Sc4ccnc(NC5CC5)c4Cl)cnc3[nH]1)CC2 [Example 160, (S)-1′-(5-((3-chloro-2-(cyclopropylamino)pyridin-4-yl)thio)-1H-imidazo[4,5-b]pyrazin-2-yl)-1,3-dihydrospiro[indene-2,4′-piperidin]-1-amine]	–
< 500 nM	1000 to 5000 nM	N[C@@H]1c2cccnc2CC12CCN(c1nc3ncc(Sc4ccnc(NC5CC5)c4Cl)nc3[nH]1)CC2 [Example 161, (S)-1′-(6-((3-chloro-2-(cyclopropylamino)pyridin-4-yl)thio)-1H-imidazo[4,5-b]pyrazin-2-yl)-5,7-dihydrospiro[cyclopenta[b]pyridine-6,4′-piperidin]-5-amine]	–

SMILES	IC50 [1]	IC50 [2, 3]	IC50 [2]
N[C@@H]1c2ccccc2CC12CCN(c1nc3nc(Sc4ccncc4Cl)cnc3[nH]1)CC2 [Example 148, (S)-1′-(5-((3-chloropyridin-4-yl)thio)-1H-imidazo[4,5-b]pyrazin-2-yl)-1,3-dihydrospiro[indene-2,4′-piperidin]-1-amine]	< 500 nM	–	< 1000 nM
N[C@H]1c2ccccc2CC12CCN(c1nc3nc(Sc4cccnc4C(F)(F)F)cnc3[nH]1)CC2 [Example 149, (R)-1′-(5-((2-(trifluoromethyl)pyridin-3-yl)thio)-1H-imidazo[4,5-b]pyrazin-2-yl)-1,3-dihydrospiro[indene-2,4′-piperidin]-1-amine]	< 500 nM	–	1000 to 5000 nM
N[C@@H]1c2ccccc2CC12CCN(c1nc3nc(Sc4ccnc(O)c4Cl)cnc3[nH]1)CC2 [Example 152, (S)-4-((2-(1-amino-1,3-dihydrospiro[indene-2,4′-piperidin]-1′-yl)-1H-imidazo[4,5-b]pyrazin-5-yl)thio)-3-chloropyridin-2-ol]	< 500 nM	–	> 5000 nM
